target: T1, TNIK (Homo sapiens, UniProt Q9UKE5); experiment: ADP-Glo Kinase Assay, inhibition activity on TNIK; type: biochemical; conditions: not given
T1 construct: purchased Promega V4158
Experimental: The inhibition activities on TNIK, IKKε and TBK1 were measured by a luminometer, TNIK/IKKε/TBK1 Kinase Enzyme System (Promega, Ca# V4158; Invitrogen, PR8031B, Promega, Ca# V3991) and ADP-Glo Kinase Assay using ADP-Glo™ Kinase Analysis Kit (Promega, Ca# V9101) and a kinase reaction buffer [40 mM Tris(pH 7.5), 20 mM MgCl2, 0.1 mg/mL BSA] in accordance with the manufacturer's protocol.

T1 sequence (Q9UKE5 1-367 limits assumed): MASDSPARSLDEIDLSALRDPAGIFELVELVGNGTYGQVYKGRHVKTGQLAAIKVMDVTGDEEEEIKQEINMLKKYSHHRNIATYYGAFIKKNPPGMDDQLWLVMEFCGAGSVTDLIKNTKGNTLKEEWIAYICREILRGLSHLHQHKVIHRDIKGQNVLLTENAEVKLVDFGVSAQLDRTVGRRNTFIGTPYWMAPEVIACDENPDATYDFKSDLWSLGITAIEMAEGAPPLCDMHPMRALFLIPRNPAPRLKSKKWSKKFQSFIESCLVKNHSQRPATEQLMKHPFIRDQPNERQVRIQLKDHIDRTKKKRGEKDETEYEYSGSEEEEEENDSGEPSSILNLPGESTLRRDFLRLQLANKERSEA

SMILES	TNIK (μM)
COc1ccc(C(=O)Nc2ccc(-c3ccccc3)c3c2C(=O)NC3)cc1OC [Example 102, 3,4-Dimethoxy-N-(3-oxo-7-phenylisoindolin-4-yl)benzamide]	Insoluble
O=C(Nc1ccc(-c2ccccc2)c2c1C(=O)NC2)c1ccc(Cl)c(Cl)c1 [Example 104, 3,4-Dichloro-N-(3-oxo-7-phenylisoindolin-4-yl)benzamide]	Insoluble

Results, then the compound that gave them:

TNIK (μM)	SMILES
Insoluble	Nc1ccc(-c2ccc(F)cc2)c2c1C(=O)NC2 [Example 61, 7-Amino-4-(4-fluorophenyl)isoindolin-1-one]
Insoluble	CN(C)c1cccc(C(=O)Nc2ccc(-c3ccccc3)c3c2C(=O)NC3)c1 [Example 95, 3-(Dimethylamino)-N-(3-oxo-7-phenylisoindolin-4-yl) benzamide]
Insoluble	O=C(Nc1ccc(-c2ccccc2)c2c1C(=O)NC2)c1ccc([N+](=O)[O-])cc1 [Example 119, 4-Nitro-N-(3-oxo-7-phenylisoindolin-4-yl)benzamide]

same assay, conditions: read-out: TNIK

SMILES	IC50 [µM]
O=C(Nc1ccc(-c2cccc(Cl)c2F)c2c1C(=O)NC2)c1ccccc1 [Example 50, N-(7-(3-chloro-2-fluorophenyl)-3-oxoisoindolin-4-yl)benzamide]	> 20
O=C(Nc1ccc(-c2cncs2)c2c1C(=O)NC2)c1ccccc1 [Example 51, N-(3-oxo-7-(thiazol-5-yl)isoindolin-4-yl)benzamide]	0.44
O=C(Nc1ccc(-c2cscn2)c2c1C(=O)NC2)c1ccccc1 [Example 52, N-(3-oxo-7-(thiazol-4-yl)isoindolin-4-yl)benzamide]	2.8
O=C(Nc1ccc(-c2nccs2)c2c1C(=O)NC2)c1ccccc1 [Example 53, N-(3-oxo-7-(thiazol-2-yl)isoindolin-4-yl)benzamide]	2.34
O=C(Nc1ccc(-c2c[nH]cn2)c2c1C(=O)NC2)c1ccccc1 [Example 54, N-(7-(1H-imidazol-4-yl)-3-oxoisoindolin-4-yl)benzamide]	3.82
O=C(Nc1ccc(-c2cn[nH]c2)c2c1C(=O)NC2)c1ccccc1 [Example 55, N-(3-oxo-7-(1H-pyrazol-4-yl)isoindolin-4-yl)benzamide]	4.62
Cn1cncc1-c1ccc(NC(=O)c2ccccc2)c2c1CNC2=O [Example 56, N-(7-(1-methyl-1H-imidazol-5-yl)-3-oxoisoindolin-4-yl) benzamide]	2.21
Cn1cc(-c2ccc(NC(=O)c3ccccc3)c3c2CNC3=O)cn1 [Example 57, N-(7-(1-methyl-1H-pyrazol-4-yl)-3-oxoisoindolin-4-yl) benzamide]	2.17
O=C(Nc1ccc(-c2ncn[nH]2)c2c1C(=O)NC2)c1ccccc1 [Example 58, N-(3-oxo-7-(1H-1,2,4-triazol-5-yl)isoindolin-4-yl)benzamide]	2.67
Cn1ncnc1-c1ccc(NC(=O)c2ccccc2)c2c1CNC2=O [Example 59, N-(7-(1-methyl-1H-1,2,4-triazol-5-yl)-3-oxoisoindolin-4-yl) benzamide]	> 20
O=C(Nc1ccc(-c2ccccc2)c2c1C(=O)NC2)c1ccc(F)cc1F [Example 91, 2,4-Difluoro-N-(3-oxo-7-phenylisoindolin-4-yl)benzamide]	> 20
O=C(Nc1ccc(-c2ccccc2)c2c1C(=O)NC2)c1ccc(F)c(F)c1 [Example 92, 3,4-Difluoro-N-(3-oxo-7-phenylisoindolin-4-yl)benzamide]	> 20
CS(=O)(=O)c1ccccc1C(=O)Nc1ccc(-c2ccccc2)c2c1C(=O)NC2 [Example 98, 2-(Methylsulfonyl)-N-(3-oxo-7-phenylisoindolin-4-yl) benzamide]	10.5
CS(=O)(=O)c1cccc(C(=O)Nc2ccc(-c3ccccc3)c3c2C(=O)NC3)c1 [Example 99, 3-(Methylsulfonyl)-N-(3-oxo-7-phenylisoindolin-4-yl) benzamide]	4.3
CS(=O)(=O)c1ccc(C(=O)Nc2ccc(-c3ccccc3)c3c2C(=O)NC3)cc1 [Example 100, 4-(Methylsulfonyl)-N-(3-oxo-7-phenylisoindolin-4-yl) benzamide]	> 20
COc1ccc(C(=O)Nc2ccc(-c3ccccc3)c3c2C(=O)NC3)c(OC)c1 [Example 101, 2,4-Dimethoxy-N-(3-oxo-7-phenylisoindolin-4-yl)benzamide]	> 20
O=C(Nc1ccc(-c2ccccc2)c2c1C(=O)NC2)c1ccc(Cl)cc1Cl [Example 103, 2,4-Dichloro-N-(3-oxo-7-phenylisoindolin-4-yl)benzamide]	> 20
CC(=O)Nc1ccccc1C(=O)Nc1ccc(-c2ccccc2)c2c1C(=O)NC2 [Example 106, 2-Acetamido-N-(3-oxo-7-phenylisoindolin-4-yl)benzamide]	> 20
CC(=O)Nc1cccc(C(=O)Nc2ccc(-c3ccccc3)c3c2C(=O)NC3)c1 [Example 107, 3-Acetamido-N-(3-oxo-7-phenylisoindolin-4-yl)benzamide]	0.48
Cc1ccccc1-c1ccc(NC(=O)c2ccccc2)c2c1CNC2=O [Example 112, N-(3-oxo-7-(o-tolyl)isoindolin-4-yl)benzamide]	2.2
O=C(Nc1ccc(-c2ccccc2C(F)(F)F)c2c1C(=O)NC2)c1ccccc1 [Example 114, N-(3-oxo-7-(2-(trifluoromethyl)phenyl)isoindolin-4-yl) benzamide]	> 20
O=C(Nc1ccc(-c2cccc(C(F)(F)F)c2)c2c1C(=O)NC2)c1ccccc1 [Example 115, N-(3-oxo-7-(3-(trifluoromethyl)phenyl)isoindolin-4-yl) benzamide]	> 20
CC(=O)Nc1ccc(C(=O)Nc2ccc(-c3ccccc3)c3c2C(=O)NC3)cc1 [Example 116, 4-Acetamido-N-(3-oxo-7-phenylisoindolin-4-yl)benzamide]	0.13
COc1ccc(-c2ccc(NC(=O)c3ccc(NC(C)=O)cc3)c3c2CNC3=O)cc1 [Example 120, 4-Acetamido-N-(7-(4-methoxyphenyl)-3-oxoisoindolin-4-yl) benzamide]	> 20

The next lines start with the values.

IC50 [µM]	SMILES
> 20	COc1ccc(-c2ccc(N)c3c2CNC3=O)cc1 [Example 60, 7-Amino-4-(4-methoxyphenyl)isoindolin-1-one]
> 20	Nc1ccc(-c2ccc(Cl)cc2)c2c1C(=O)NC2 [Example 62, 7-Amino-4-(4-chlorophenyl)isoindolin-1-one]
> 20	Cc1ccc(-c2ccc(N)c3c2CNC3=O)cc1 [Example 63, 7-Amino-4-(p-tolyl)isoindolin-1-one]
> 20	CC(=O)c1ccc(-c2ccc(N)c3c2CNC3=O)cc1 [Example 64, 4-(4-Acetylphenyl)-7-aminoisoindolin-1-one]
> 20	Nc1ccc(-c2ccncc2)c2c1C(=O)NC2 [Example 65, 7-Amino-4-(pyridin-4-yl)isoindolin-1-one]
14.6	Cc1ccccc1C(=O)Nc1ccc(-c2ccccc2)c2c1C(=O)NC2 [Example 87, 2-Methyl-N-(3-oxo-7-phenylisoindolin-4-yl)benzamide]
2.8	Cc1cccc(C(=O)Nc2ccc(-c3ccccc3)c3c2C(=O)NC3)c1 [Example 88, 3-Methyl-N-(3-oxo-7-phenylisoindolin-4-yl)benzamide]
0.77	Cc1ccc(C(=O)Nc2ccc(-c3ccccc3)c3c2C(=O)NC3)cc1 [Example 89, 4-Methyl-N-(3-oxo-7-phenylisoindolin-4-yl)benzamide]
> 20	O=C(Nc1ccc(-c2ccccc2)c2c1C(=O)NC2)c1cccc(Cl)c1 [Example 90, 3-Chloro-N-(3-oxo-7-phenylisoindolin-4-yl)benzamide]
1.1	Cc1ccc(C(=O)Nc2ccc(-c3ccccc3)c3c2C(=O)NC3)cc1C [Example 93, 3,4-Dimethyl-N-(3-oxo-7-phenylisoindolin-4-yl)benzamide]
> 20	CN(C)c1ccccc1C(=O)Nc1ccc(-c2ccccc2)c2c1C(=O)NC2 [Example 94, 2-(Dimethylamino)-N-(3-oxo-7-phenylisoindolin-4-yl) benzamide]
7	CSc1ccccc1C(=O)Nc1ccc(-c2ccccc2)c2c1C(=O)NC2 [Example 96, 2-(Methylthio)-N-(3-oxo-7-phenylisoindolin-4-yl)benzamide]
> 20	CSc1cccc(C(=O)Nc2ccc(-c3ccccc3)c3c2C(=O)NC3)c1 [Example 97, 3-(Methylthio)-N-(3-oxo-7-phenylisoindolin-4-yl)benzamide]
> 20	Cc1ccc(C(=O)Nc2ccc(-c3ccccc3)c3c2C(=O)NC3)c(C)c1 [Example 105, 2,4-Dimethyl-N-(3-oxo-7-phenylisoindolin-4-yl)benzamide]
0.78	CNc1ccc(C(=O)Nc2ccc(-c3ccccc3)c3c2C(=O)NC3)cc1 [Example 108, 4-(Methylamino)-N-(3-oxo-7-phenylisoindolin-4-yl)benzamide]
> 20	Cc1ccsc1C(=O)Nc1ccc(-c2ccccc2)c2c1C(=O)NC2 [Example 109, 3-Methyl-N-(3-oxo-7-phenylisoindolin-4-yl)thiophene-2-carboxamide]
> 20	Cc1csc(C(=O)Nc2ccc(-c3ccccc3)c3c2C(=O)NC3)c1 [Example 110, 4-Methyl-N-(3-oxo-7-phenylisoindolin-4-yl)thiophene-2-carboxamide]
0.54	Cc1ccc(C(=O)Nc2ccc(-c3ccccc3)c3c2C(=O)NC3)s1 [Example 111, 5-Methyl-N-(3-oxo-7-phenylisoindolin-4-yl)thiophene-2-carboxamide]
1.7	Cc1cccc(-c2ccc(NC(=O)c3ccccc3)c3c2CNC3=O)c1 [Example 113, N-(3-oxo-7-(m-tolyl)isoindolin-4-yl)benzamide]
2.32	O=C(Nc1ccc(-c2ccccc2)c2c1C(=O)NC2)c1ccccc1 [Example 117, N-(3-oxo-7-phenylisoindolin-4-yl)benzamide]
> 20	COc1ccc(-c2ccc(NC(=O)c3ccccc3)c3c2CNC3=O)cc1 [Example 118, N-(7-(4-methoxyphenyl)-3-oxoisoindolin-4-yl)benzamide]

Reference: patent US9856216B2, “Compounds as TNIK, IKKε and TBK1 inhibitors and pharmaceutical composition comprising same” (GREEN CROSS CORPORATION, priority 2015, dated 2018)
